We go through 5 molecules from ChEMBL document CHEMBL6134810, “Novel Hypochlorous Acid-Activated Near-Infrared Probe Monitors the Dynamic Changes of Myeloperoxidase Activity in Ischemic Brain” (J Med Chem, 2025).

By Kd is commonly meant a measure of binding affinity in units of concentration.

The test system of data set [1] is Mus musculus. The experiment in a line: Protection against photo thrombotic stroke induced cerebral ischemia in male C57BL/6 mouse model assessed as decrease in asymmetry index at 40 mg/kg, IG preincubated for 18 consecutive days followed by induction of stoke for 3 days and measured after 10 to 15 days by foot fault test. The note with it: time 31-36 day. The class given is functional, organism-based.

For data set [2], the system named is Mus musculus. The experiment in a line: Protection against photo thrombotic stroke induced cerebral ischemia in male C57BL/6 mouse model assessed as inhibition of MPO activity in brain at 40 mg/kg, IG preincubated for 18 consecutive days followed by induction of stoke for 3 days and measured after 7 days. The note with it: time 28.0 day. It counts as functional, organism-based.

Data set [3] relates to Mus musculus. The experiment in a line: Protection against photo thrombotic stroke induced cerebral ischemia in male C57BL/6 mouse model assessed as amelioration of foot fault in hindlimb at 40 mg/kg, IG preincubated for 18 consecutive days followed by induction of stoke for 3 days and measured after 5 to 15 days by foot fault test. It counts as functional, organism-based. The note with it: time 26-36 day.

For data set [4], the system named is Mus musculus. The experiment in a line: Protection against photo thrombotic stroke induced cerebral ischemia in male C57BL/6 mouse model assessed as amelioration of foot fault in forelimb at 40 mg/kg, IG preincubated for 18 consecutive days followed by induction of stoke for 3 days and measured after 5 to 15 days by foot fault test. It counts as functional, organism-based. The note with it: time 26-36 day.

Data set [5] has as its system Mus musculus. The experiment in a line: Protection against photo thrombotic stroke induced cerebral ischemia in male C57BL/6 mouse model assessed as effect on body weight at 40 mg/kg, IG preincubated for 18 consecutive days followed by induction of stoke for 3 days and measured after 5 days by TTC staining based analysis. The class given is functional, organism-based. The note with it: time 26.0 day.

The subject of data set [6] is Mus musculus. The experiment in a line: Protection against photo thrombotic stroke induced cerebral ischemia in male C57BL/6 mouse model assessed as decrease in infarct size at 40 mg/kg, IG preincubated for 18 consecutive days followed by induction of stoke for 3 days and measured after 5 days by TTC staining based analysis. The note with it: time 26.0 day. It counts as functional, organism-based.

Data set [7] in a line: Drug uptake in human HeLa cells assessed as increase in red fluorescence at 10 uM measured within 40 mins in presence of HClO by Hoechst staining based confocal microscopic analysis. It counts as ADME, cell-based.
The nature of data set [8]: Drug uptake in IFN-gamma treated human Neutrophil cells assessed as increase in fluorescence at 10 uM measured after 30 mins by Hoechst staining based confocal microscopic analysis. The class given is ADME, cell-based. The note with it: 0.5 h.
For data set [9], the target named is T1, Myeloperoxidase (Homo sapiens) (UniProt P05164).
T1 sequence (whole entry): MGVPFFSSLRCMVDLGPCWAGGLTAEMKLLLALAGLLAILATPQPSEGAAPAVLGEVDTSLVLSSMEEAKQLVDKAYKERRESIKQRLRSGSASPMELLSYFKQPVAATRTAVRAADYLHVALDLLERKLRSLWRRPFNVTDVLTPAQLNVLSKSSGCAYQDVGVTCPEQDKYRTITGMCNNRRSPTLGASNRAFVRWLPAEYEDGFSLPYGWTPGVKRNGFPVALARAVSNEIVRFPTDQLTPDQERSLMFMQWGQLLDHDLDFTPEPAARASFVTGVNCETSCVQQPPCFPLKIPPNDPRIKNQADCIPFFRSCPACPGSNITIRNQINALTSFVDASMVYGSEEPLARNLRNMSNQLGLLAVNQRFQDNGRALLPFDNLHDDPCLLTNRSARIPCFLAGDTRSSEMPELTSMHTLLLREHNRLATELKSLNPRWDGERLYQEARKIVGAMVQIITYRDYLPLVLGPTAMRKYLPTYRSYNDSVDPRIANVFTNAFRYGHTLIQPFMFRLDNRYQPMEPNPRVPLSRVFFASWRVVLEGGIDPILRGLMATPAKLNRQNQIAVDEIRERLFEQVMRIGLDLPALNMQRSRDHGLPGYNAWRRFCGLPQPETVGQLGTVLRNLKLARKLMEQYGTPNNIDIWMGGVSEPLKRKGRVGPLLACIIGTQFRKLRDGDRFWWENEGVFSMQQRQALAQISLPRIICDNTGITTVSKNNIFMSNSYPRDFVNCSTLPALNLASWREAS
The experiment in a line: Inhibition of MPO in human HL-60 cells harbouring MPO-ZsGreen assessed as decrease in red fluorescence intensity at 10 uM preincubated with AZD5904 for 2 hrs followed by compound addition and measured after 30 mins by fluorescence imaging based confocal microscopy analysis. It counts as cell-based.

Data set [10] can be described thus: Drug uptake in human HeLa cells at 10 uM measured after 30 mins by Hoechst staining based confocal microscopic analysis. It counts as ADME, cell-based. The note with it: 0.5 h.
Data set [11] concerns the target T1, Myeloperoxidase (Homo sapiens). The experiment in a line: Inhibition of MPO in HEK293T cells harbouring MPO-ZsGreen assessed as decrease in red fluorescence intensity at 10 uM preincubated with ZL-002 for 4 hrs followed by compound addition and measured after 30 mins by fluorescence imaging based confocal microscopy analysis. It counts as cell-based.
For data set [12] the target is unchanged. The experiment in a line: Binding affinity to MPO (unknown origin) assessed as change in enthalpy by ITC analysis. On the technique in general: Isothermal titration calorimetry measures the heat released or taken up as one component is titrated into another.
The species named for data set [13] is Mus musculus. The experiment in a line: Protection against photo thrombotic stroke induced cerebral ischemia in male C57BL/6 mouse model assessed as decrease in fluorescence response in brain cortex preincubated with AZD5904 for 18 consecutive days followed by induction of stoke for 3 days and measured after 7 days by Ly6G staining based confocal microscopy based analysis. The note with it: time 7.0 day. The class given is functional, organism-based.

For data set [14], the target named is T1, Myeloperoxidase (Homo sapiens). The experiment in a line: Inhibition of MPO in human HL-60 cells harbouring MPO-ZsGreen assessed as decrease in red fluorescence intensity at 10 uM preincubated with MPO-IN-28 for 2 hrs followed by compound addition and measured after 30 mins by fluorescence imaging based confocal microscopy analysis. The class given is cell-based.

Data set [15] shares this target. The experiment in a line: Inhibition of MPO in HEK293T cells harbouring MPO-ZsGreen assessed as decrease in red fluorescence intensity at 10 uM preincubated with ZL-006 for 4 hrs followed by compound addition and measured after 30 mins by fluorescence imaging based confocal microscopy analysis. It counts as cell-based.
A short description of data set [16]: Drug uptake in human HeLa cells assessed as increase in red fluorescence at 10 uM measured after 30 mins in presence of HClO by Hoechst staining based confocal microscopic analysis. The note with it: 0.5 h. The class given is ADME, cell-based.
Data set [17] addresses T1, Myeloperoxidase (Homo sapiens). The experiment in a line: Inhibition of MPO in HEK293T cells harbouring MPO-ZsGreen assessed as decrease in red fluorescence intensity at 10 uM preincubated with MPO-IN-28 for 4 hrs followed by compound addition and measured after 30 mins by fluorescence imaging based confocal microscopy analysis. The class given is cell-based.
In data set [18] the test system is Brain. The experiment in a line: Ex vivo protection against photo thrombotic stroke induced cerebral ischemia in male C57BL/6 mouse brain assessed as decrease in MPO induced HClO fluorescence signal in cortex at 10 uM preincubated with AZD5904 for 1 hr followed by compound addition and measured after 30 mins by fluorescence imaging based confocal microscopy analysis. It counts as functional, tissue-based.

Data set [19] deals with T1, Myeloperoxidase (Homo sapiens). The experiment in a line: Induction of thermal stabilization of MPO (unknown origin) at 10 uM by CESTA analysis.
Data set [20] relates to HT-22. The experiment in a line: Cytotoxicity against mouse HT-22 cells assessed as cell viability at 50 uM incubated for 24 hrs by CCK-8 method. It counts as functional, cell-based. For orientation: Formazan colour is commonly taken as a measure of viable cells.
The target of a further data set is T2, Myeloperoxidase (Homo sapiens, UniProt P05164).
T2 sequence (P05164 whole entry): T1 sequence (whole entry)
The experiment in a line: (§1) Binding affinity to MPO (unknown origin) assessed as dissociation constant by ITC analysis.

Data set [21] deals with T1, Myeloperoxidase (Homo sapiens). The experiment in a line: Inhibition of MPO in HEK293T cells harbouring MPO-ZsGreen assessed as decrease in red fluorescence intensity at 10 uM preincubated with edaravone for 4 hrs followed by compound addition and measured after 30 mins by fluorescence imaging based confocal microscopy analysis. It counts as cell-based.
Data set [22] deals with Brain. The experiment in a line: Ex vivo protection against photo thrombotic stroke induced cerebral ischemia in male C57BL/6 mouse brain assessed as decrease in MPO induced HClO fluorescence signal in cortex at 10 uM preincubated with MPO-IN-28 for 1 hr followed by compound addition and measured after 30 mins by fluorescence imaging based confocal microscopy analysis. It counts as functional, tissue-based.

For data set [23], the target named is T1, Myeloperoxidase (Homo sapiens). The experiment in a line: Inhibition of MPO in HEK293T cells harbouring MPO-ZsGreen assessed as decrease in red fluorescence intensity at 10 uM preincubated with AZD5904 for 4 hrs followed by compound addition and measured after 30 mins by fluorescence imaging based confocal microscopy analysis. The class given is cell-based.

Data set [24] deals with Mus musculus. The experiment in a line: Protection against photo thrombotic stroke induced cerebral ischemia in male C57BL/6 mouse model assessed as MPO secretion in brain at 1 mg/kg, iv by Ly6G staining based confocal microscopy based analysis. The class given is functional, organism-based.
Data set [25] has as its system HT-22. The experiment in a line: Cytotoxicity against mouse HT-22 cells assessed as cell viability at 20 uM incubated for 24 hrs by CCK-8 method. It counts as functional, cell-based.
Data set [26] deals with T1, Myeloperoxidase (Homo sapiens). The data set is described as §1.
For data set [27], the species on record is Mus musculus. The experiment in a line: Protection against photo thrombotic stroke induced cerebral ischemic male C57 mouse model assessed as improvement in sensory motor dysfunction measured after 5 days by rotarod test. The class given is functional, organism-based. The note with it: time 5.0 day. For orientation: In the rotarod test animals must keep their balance on a rotating rod.

The species named for data set [28] is Mus musculus. The experiment in a line: Protection against photo thrombotic stroke induced cerebral ischemic male C57 mouse model assessed as reduction in number neutrophils measured after 7 days. It counts as functional, organism-based. The note with it: time 7.0 day.
Data set [29] is filed under the species Mus musculus. The experiment in a line: Protection against photo thrombotic stroke induced cerebral ischemic male C57 mouse model assessed as improvement in sensory motor dysfunction measured after 5 days by foot fault test. The class given is functional, organism-based. The note with it: time 5.0 day.

Calls of active or inactive are those of the source. No cut-off for these calls is given here.

On to `O=c1[nH]c(=S)n(C[C@H]2CCCO2)c2nc[nH]c12`, for which the outcome in the data set with Mus musculus [1], with Mus musculus [2], in the data set with Mus musculus [3], in the data set with Mus musculus [4], in the data set with Mus musculus [5] and with Mus musculus [6] was Active.

Take `COc1ccc2[nH]cc(CCNC(=S)NN3C(=O)c4ccccc4C34c3ccc(N(C)C)cc3[Si](C)(C)c3cc(N(C)C)ccc34)c2c1`: the Drug uptake result in data set [7] is “Not_active”; in data set [8], “Active”; in data set [10] it was “Not_active”; in data set [16] it was “Active”. Moreover, the inhibition entry in [9], in data set [14], in [15], in data set [17] and in [23] was “Active” each time. The inhibition result in data set [11] and in data set [21] was “inactive” throughout. In addition, the deltaH in [12] turned out to be 2.39 kcal/mol. For the same molecule, the result (in the data set filed under Mus musculus [13]; in the data set with Brain [18]; in data set [19]; in the data set with Brain [22]; in the data set with Mus musculus [24]) was Active. In the data set on HT-22 [20], the Activity result is given as “Active; Compound Showed Little Toxicity”. The dissociation constant (Kd) on Myeloperoxidase is 11.6 µM.

Turning to `CN(C)c1ccc2c(c1)[Si](C)(C)c1cc(N(C)C)ccc1C21c2ccccc2C(=O)N1NC(=S)NCCc1c[nH]c2ccc(O)cc12`, the result in the data set on HT-22 [25] was Active.

Take `CCNc1cc2[o+]c3cc(NCC)c(C)cc3c(-c3ccccc3C(=O)OCC)c2cc1C`: the result in data set [12] and in data set [26] was inactive.

For `CC1=NN(c2ccccc2)C(=O)C1`, the outcome in the data set listed under Mus musculus [27], in the data set filed under Mus musculus [28] and in the data set listed under Mus musculus [29] was inactive.
